Measurements reported in US12221426B2, “Inhibitory material against human body-derived nicotinamide adenine dinucleotide phosphate-dependent steroid dehydrogenase-like, and anticancer agent comprising same as effective ingredient or pharmaceutical composition comprising same as effective ingredient for treatment of hyperlipidemia” (SEOUL NATIONAL UNIVERSITY R&DB FOUNDATION, priority 2018, dated 2025).

Target: Human-derived nicotinamide adenine dinucleotide phosphate-dependent steroid dehydrogenase (NSDHL) (Homo sapiens (Human), UniProt Q15738)
Experiment: NSDHL inhibitory activity evaluation: decrease of NADH fluorescence amplification when inhibitor releases NADH from NSDHL
Format: binding
Settings: recombinant NSDHL (16 μM, 50 μl) + NADH (50 μM, 50 μl), room temperature 10 min, Ex 340 nm/Em 460 nm, 96-well plate
Experimental: In order to evaluate the nicotinamide adenine dinucleotide phosphate-dependent steroid dehydrogenase (NSDHL) inhibitory activity of the compound provided in one aspect of the present invention, the following experiment was performed.
Human-derived nicotinamide adenine dinucleotide phosphate-dependent steroid dehydrogenase (NADP-dependent steroid dehydrogenase-like; NSDHL) was expressed in large quantities in E. coli. The NSDHL gene was inserted into pET21a plasmid, which was cloned into E. coli C41 (DE3). After culturing E. coli in Luria Broth medium at 37° C., IPTG was added thereto at the time when OD600 was about 0.7 to express NSDHL, followed by culture at 37° C. for 4 hours.
The cultured E. coli was centrifuged, and the cells were stored at −80° C. The cells were crushed by sonification, which was first purified using IMAC (Immobilized metallo-affinity chromatography), and then finally purified using SEC (Size exclusion chromatography). The composition of the buffer solution for storing NSDHL was as follows: 40 mM HEPES (pH 8.0), 150 mM NaCl, and 0.5 mM TCEP.
When dehydrogenase binds to NADH, fluorescence intensity is amplified compared to NADH alone. In other words, if the dehydrogenase, NSDHL, is treated with an inhibitor in a state in which it is bound to NADH, the fluorescence intensity will be reduced because NADH is released. FIG. 1 is a graph showing the results of measuring the fluorescence intensity of NADH according to the concentration of NSDHL.
In addition, it was also confirmed in FIG. 2 that an experiment for inhibiting was possible using NAD+, which is an oxidized form of NADH, but is not measured in the fluorescence measurement range of NADH. FIG. 2 is a graph showing the results of an experiment for inhibiting NSDHL and NADH conjugate using NAD+.
An activity assay was performed using a 96-well plate, and an experiment was performed after adding an inhibitor to each well at the final concentrations of 200 μM≤1 μM. Particularly, 50 μl of 16 μM NSDHL, 50 mM HEPES, 20% glycerol were added to each well, and then 50 ul of 50 μM NADH was added to each well, followed by reaction at room temperature for 10 minutes. The fluorescence level of each well was measured using SpectraMax M5 (Molecular Devices) equipment (Ex: 340 nm, Em: 460 nm). The values were corrected by separately measuring the absorbance of the compound and the buffer solution, and the degree of inhibition of each compound against NSDHL was measured based on the NADH fluorescence at the same concentration without binding. IC50 (inhibitory concentration at 50%) was calculated using GraphPad Prism software.

Human-derived nicotinamide adenine dinucleotide phosphate-dependent steroid dehydrogenase (NSDHL), sequence (Q15738 whole entry): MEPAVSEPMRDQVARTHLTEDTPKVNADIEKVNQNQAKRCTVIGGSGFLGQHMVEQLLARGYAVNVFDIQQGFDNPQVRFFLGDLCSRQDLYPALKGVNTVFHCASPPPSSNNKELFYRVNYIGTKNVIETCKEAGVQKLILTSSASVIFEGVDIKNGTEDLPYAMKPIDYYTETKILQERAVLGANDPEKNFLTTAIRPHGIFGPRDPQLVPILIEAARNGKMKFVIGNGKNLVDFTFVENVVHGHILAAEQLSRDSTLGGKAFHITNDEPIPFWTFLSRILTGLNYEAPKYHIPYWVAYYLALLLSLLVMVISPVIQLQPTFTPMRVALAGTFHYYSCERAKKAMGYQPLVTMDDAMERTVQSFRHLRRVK

Row | Compound | IC50 [µM]
1 | COc1cccc(OCc2ccccc2)c1/C=C1\SC(=S)N(CC(=O)O)C1=O [Example 3, (Z)-2-(5-(2-(benzyloxy)-6-methoxybenzylidene)-4-oxo-2-thioxothiazolidin-3-yl)acetic acid] | 19.9
2 | O=C(O)CN1C(=O)/C(=C/c2ccc(O)cc2OCc2ccccc2Br)SC1=S [Example 4, (Z)-2-(5-(2-(2-bromobenzyloxy)-4-hydroxybenzylidene)-4-oxo-2-thioxothiazolidin-3-yl)acetic acid] | 17.8
3 | O=C(O)CN1C(=O)/C(=C/c2cc(Br)ccc2OCc2ccccc2I)SC1=S [Example 5, (Z)-2-(5-(5-bromo-2-(2-iodobenzyloxy)benzylidene)-4-oxo-2-thioxothiazolidin-3-yl)acetic acid] | 27.1

Molecules with a lower IC50, results first:

Row | IC50 [µM] | Compound
4 | 10.4 | O=C(O)CN1C(=O)/C(=C/c2cc(-c3ccc(F)cc3)ccc2OCc2ccc(C(=O)O)cc2)SC1=S [Example 1, (Z)-4-((3-((3-(carboxymethyl)-4-oxo-2-thioxothiazolidin-5-ylidene)methyl)-4′-fluorobiphenyl-4-yloxy)methyl)benzoic acid]
5 | 12.8 | O=C(O)CN1C(=O)/C(=C/c2cn(-c3ccc(F)cc3)nc2-c2cccc(Cl)c2)SC1=S [Example 2, (Z)-2-(5-((3-(3-chlorophenyl)-1-(4-fluorophenyl)-1H-pyrazole-4-yl)methylene)-4-oxo-2-thioxothiazolidin-3-yl)acetic acid]
